Assays:
Type in all cases: ADME, organism-based
[1] = Oral bioavailability in mouse plasma at 25 mg/kg
[2] = Volume of distribution at steady state in mouse plasma at 1 mg/kg, iv; set-up: dose 1 mg/kg, route intravenous; conditions: read-out: Vdss
[3] = Clearance in mouse plasma at 1 mg/kg, iv; set-up: dose 1 mg/kg, route intravenous

Compound	bioavailability [1]	Vd [2]	clearance [3]
CS(=O)(=O)c1ccc(-c2cc3c(Nc4ccncc4)ncnn3c2)cc1	6%	1 L/kg	25 mL/min/kg
CN1CCN(c2ccc(-c3cc4c(Nc5ccncc5)ncnn4c3)cn2)CC1	–	15 L/kg	78 mL/min/kg
CC(C)(O)Cn1cc(-c2ccc(-c3cc4c(Nc5ccncc5)ncnn4c3)cc2)cn1	16%	2 L/kg	22 mL/min/kg

— ChEMBL document CHEMBL3351500, “Fragment-based identification and optimization of a class of potent pyrrolo[2,1-f][1,2,4]triazine MAP4K4 inhibitors” (Bioorg Med Chem Lett, 2014)
